Activity calls are given as the source filed them. The rule behind the calls is not given here.
How the values were obtained:
Shigella flexneri = test: Antimicrobial activity against Shigella flexneri MTCC 1457 assessed as inhibition of visual microbial growth incubated for 24 hrs at 37 degC; assay type: functional; conditions: MTCC 1457, 24 h
Micrococcus luteus = test: Antimicrobial activity against Micrococcus luteus MTCC 106 assessed as inhibition of visual microbial growth incubated for 24 hrs at 37 degC; assay type: functional; conditions: MTCC 106, 24 h
Staphylococcus aureus [1] = test: Antimicrobial activity against methicillin-resistant Staphylococcus aureus assessed as inhibition of visual microbial growth incubated for 24 hrs at 37 degC; assay type: functional
Salmonella typhimurium = test: Antimicrobial activity against Salmonella typhimurium MTCC 1251 assessed as inhibition of visual microbial growth incubated for 24 hrs at 37 degC; assay type: functional, Salmonella enterica subsp. enterica serovar Typhimurium; conditions: Salmonella enterica, MTCC 1251, 24 h
Staphylococcus aureus [2] = test: Antimicrobial activity against Staphylococcus aureus MTCC 96 assessed as inhibition of visual microbial growth incubated for 24 hrs at 37 degC; assay type: functional; conditions: MTCC 96, 24 h
Klebsiella aerogenes = test: Antimicrobial activity against Enterobacter aerogenes MTCC 111 assessed as inhibition of visual microbial growth incubated for 24 hrs at 37 degC; assay type: functional
Klebsiella pneumoniae = test: Antimicrobial activity against Klebsiella pneumoniae MTCC 109 assessed as inhibition of visual microbial growth incubated for 24 hrs at 37 degC; assay type: functional; conditions: MTCC 109, 24 h
Candida albicans = test: Antimicrobial activity against Candida albicans MTCC 227 assessed as inhibition of visual microbial growth incubated for 48 to 72 hrs at 28 degC; assay type: functional
Proteus vulgaris = test: Antimicrobial activity against Proteus vulgaris MTCC 1771 assessed as inhibition of visual microbial growth incubated for 24 hrs at 37 degC; assay type: functional
Malassezia pachydermatis = test: Antimicrobial activity against Malassezia pachydermatis assessed as inhibition of visual microbial growth incubated for 48 to 72 hrs at 28 degC; assay type: functional

Row | Molecule | MIC (Shigella flexneri) [µg/mL] | MIC (Micrococcus luteus) [µg/mL] | MIC (Staphylococcus aureus [1]) | MIC (Salmonella typhimurium) [µg/mL] | MIC (Staphylococcus aureus [2]) [µg/mL] | MIC (Klebsiella aerogenes; MTCC 111, 24 h) [µg/mL] | MIC (Klebsiella pneumoniae) [µg/mL] | MIC (Candida albicans) [µg/mL] | MIC (Proteus vulgaris; MTCC 1771, 24 h) [µg/mL] | MIC (Malassezia pachydermatis) [µg/mL] | MIC (Proteus vulgaris) | MIC (Klebsiella aerogenes)
1 | CN[C@@H]1[C@H](O[C@H]2[C@H](O[C@H]3[C@H](O)[C@@H](O)[C@H](N=C(N)N)[C@@H](O)[C@@H]3N=C(N)N)O[C@@H](C)[C@]2(O)C=O)O[C@@H](CO)[C@H](O)[C@H]1O [STREPTOMYCIN] | 6.25 | 6.25 | 6.25 µg/mL | 30 | 6.25 | 25 | 6.25 | – | – | – | – | –
2 | CC(=O)N1CCN(c2ccc(OCC3COC(Cn4ccnc4)(c4ccc(Cl)cc4Cl)O3)cc2)CC1 (stereo not given) [KETOCONAZOLE] | – | – | – | – | – | – | – | 25 | – | – | – | –
3 | Fc1ccccc1-c1csc(N2N=C(c3cccs3)CC2c2cc3c(cc2Br)OCO3)n1 (stereo not given) | 250 | 125 | 250 µg/mL | 125 | 250 | 250 | 250 | 125 | 500 | 500 | – | –
4 | Fc1cc(-c2csc(N3N=C(c4cccs4)CC3c3ccc4c(c3)OCO4)n2)ccc1Cl (stereo not given) | 125 | 62.5 | 250 µg/mL | 500 | 500 | 125 | 250 | 125 | 500 | 500 | – | –
5 | Cc1ccc(-c2csc(N3N=C(c4cccs4)CC3c3cc4c(cc3Br)OCO4)n2)cc1 (stereo not given) | 125 | 62.5 | 250 µg/mL | 62.5 | 62.5 | 125 | 62.5 | 125 | 125 | 250 | – | –
6 | N#Cc1ccc(-c2csc(N3N=C(c4cccs4)CC3c3ccc4c(c3)OCO4)n2)cc1 (stereo not given) | 250 | 125 | 250 µg/mL | 125 | 125 | 250 | 250 | 125 | 125 | 500 | – | –
7 | N#Cc1ccc(-c2csc(N3N=C(c4cccs4)CC3c3cc4c(cc3Br)OCO4)n2)cc1 (stereo not given) | 125 | 62.5 | 125 µg/mL | 125 | 62.5 | 125 | 125 | 125 | 62.5 | 125 | – | –
8 | c1ccc(-c2csc(N3N=C(c4cccs4)CC3c3ccc4c(c3)OCO4)n2)cc1 (stereo not given) | 500 | 250 | 500 µg/mL | 250 | 500 | 250 | 500 | 250 | 500 | 500 | – | –
9 | GENTAMICIN | – | – | – | – | – | – | – | – | – | – | 32 µg/mL | –
10 | Brc1cc2c(cc1C1CC(c3cccs3)=NN1c1nc(-c3ccccc3)cs1)OCO2 (stereo not given) | 250 | 125 | 250 µg/mL | 125 | 125 | 62.5 | 250 | 125 | 62.5 | 125 | – | –
11 | O=[N+]([O-])c1ccc(-c2csc(N3N=C(c4cccs4)CC3c3ccc4c(c3)OCO4)n2)cc1 (stereo not given) | 500 | 250 | inactive | 500 | 500 | 500 | 500 | 250 | – | 500 | inactive | –
12 | Fc1cc(Cl)ccc1-c1csc(N2N=C(c3cccs3)CC2c2ccc3c(c2)OCO3)n1 (stereo not given) | 125 | 250 | 125 µg/mL | 125 | 250 | 250 | 125 | 250 | 500 | 250 | – | –
13 | Fc1cc(-c2csc(N3N=C(c4cccs4)CC3c3cc4c(cc3Br)OCO4)n2)ccc1Cl (stereo not given) | 125 | 125 | 250 µg/mL | 125 | 125 | 250 | 125 | 500 | 125 | 500 | – | –
14 | Clc1ccc(-c2csc(N3N=C(c4cccs4)CC3c3ccc4c(c3)OCO4)n2)cc1 (stereo not given) | 250 | 250 | 250 µg/mL | 250 | 125 | 250 | 62.5 | 500 | 125 | 500 | – | –
15 | Fc1cc(Cl)ccc1-c1csc(N2N=C(c3cccs3)CC2c2cc3c(cc2Br)OCO3)n1 (stereo not given) | 62.5 | 125 | 62.5 µg/mL | 31.2 | 125 | 125 | 62.5 | 62.5 | 62.5 | 125 | – | –
16 | Clc1ccc(-c2csc(N3N=C(c4cccs4)CC3c3cc4c(cc3Br)OCO4)n2)cc1 (stereo not given) | 125 | 31.2 | 62.5 µg/mL | 62.5 | 125 | 125 | 31.2 | 125 | 250 | 125 | – | –
17 | Fc1ccc(-c2csc(N3N=C(c4cccs4)CC3c3cc4c(cc3Br)OCO4)n2)cc1 (stereo not given) | 250 | 125 | inactive | 250 | 250 | 250 | 500 | 250 | – | 500 | inactive | –
18 | N#Cc1cccc(-c2csc(N3N=C(c4cccs4)CC3c3ccc4c(c3)OCO4)n2)c1 (stereo not given) | 125 | 31.2 | 62.5 µg/mL | 62.5 | 31.2 | 125 | 62.5 | 125 | 250 | 250 | – | –
19 | Cc1ccc(-c2csc(N3N=C(c4cccs4)CC3c3ccc4c(c3)OCO4)n2)cc1 (stereo not given) | 250 | 500 | 250 µg/mL | 125 | 250 | – | 125 | 125 | 500 | 500 | – | inactive
20 | N#Cc1cccc(-c2csc(N3N=C(c4cccs4)CC3c3cc4c(cc3Br)OCO4)n2)c1 (stereo not given) | 62.5 | 31.2 | 62.5 µg/mL | 31.2 | 31.2 | 62.5 | 62.5 | 62.5 | 31.2 | 125 | – | –
21 | Fc1ccc(-c2csc(N3N=C(c4cccs4)CC3c3ccc4c(c3)OCO4)n2)cc1 (stereo not given) | 250 | 250 | 250 µg/mL | 500 | 500 | 125 | 250 | 125 | 500 | 250 | – | –
22 | OC(Cn1cncn1)(Cn1cncn1)c1ccc(F)cc1F [FLUCONAZOLE] | – | – | – | – | – | – | – | – | – | 24 | – | –

Source: ChEMBL document CHEMBL3588812, “Thiophene and benzodioxole appended thiazolyl-pyrazoline compounds: Microwave assisted synthesis, antimicrobial and molecular docking studies” (2015)
